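In this assay, cells in 96-well plates receive the compound at five concentrations for 48 hours. Endpoints are linearly interpolated between the surrounding concentrations. TGI: total growth inhibition.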
How the values were obtained:
Test in all cases: NCI anticancer screen, dose series, 48 h
RXF 393 renal = system: RXF 393 renal
SR leukemia = system: SR leukemia
OVCAR-3 ovarian = system: OVCAR-3 ovarian
NCI-H460 lung = system: NCI-H460 lung
IGROV1 ovarian = system: IGROV1 ovarian
NCI-H226 lung = system: NCI-H226 lung
SF-268 CNS = system: SF-268 CNS
DMS 114 small cell lung = system: DMS 114 small cell lung
HCT-15 colon = system: HCT-15 colon
TK-10 renal = system: TK-10 renal
LXFL 529 NSCLC = system: LXFL 529 NSCLC
UACC-257 melanoma = system: UACC-257 melanoma
OVCAR-5 ovarian = system: OVCAR-5 ovarian
SK-OV-3 ovarian = system: SK-OV-3 ovarian
UO-31 renal = system: UO-31 renal
NCI-H522 lung = system: NCI-H522 lung
SNB-78 CNS = system: SNB-78 CNS
XF 498 CNS = system: XF 498 CNS
MDA-MB-435 = system: MDA-MB-435
M19-MEL melanoma = system: M19-MEL melanoma
DLD-1 colon = system: DLD-1 colon
HOP-92 NSCLC = system: HOP-92 NSCLC
KM20L2 colon = system: KM20L2 colon
T-47D breast = system: T-47D breast
SNB-75 CNS = system: SNB-75 CNS
SN12C renal = system: SN12C renal
786-0 renal = system: 786-0 renal
KM12 colon = system: KM12 colon
MDA-N = system: MDA-N
HCT-116 colon = system: HCT-116 colon
DU-145 prostate = system: DU-145 prostate
LOX IMVI melanoma = system: LOX IMVI melanoma
MCF7 breast = system: MCF7 breast
EKVX NSCLC = system: EKVX NSCLC
U251 CNS = system: U251 CNS
MALME-3M melanoma = system: MALME-3M melanoma
HOP-62 NSCLC = system: HOP-62 NSCLC
SK-MEL-5 melanoma = system: SK-MEL-5 melanoma
CCRF-CEM leukemia = system: CCRF-CEM leukemia
SK-MEL-28 melanoma = system: SK-MEL-28 melanoma
SK-MEL-2 melanoma = system: SK-MEL-2 melanoma
NCI-H23 lung = system: NCI-H23 lung
HT29 colon = system: HT29 colon
SNB-19 CNS = system: SNB-19 CNS
RXF-631 renal = system: RXF-631 renal
ACHN renal = system: ACHN renal
A498 renal = system: A498 renal
MDA-MB-231 breast = system: MDA-MB-231 breast
M14 melanoma = system: M14 melanoma
K-562 leukemia = system: K-562 leukemia
CAKI-1 renal = system: CAKI-1 renal
NCI/ADR-RES ovarian = system: NCI/ADR-RES ovarian
HCC-2998 colon = system: HCC-2998 colon
UACC-62 melanoma = system: UACC-62 melanoma
HOP-18 NSCLC = system: HOP-18 NSCLC
SF-539 CNS = system: SF-539 CNS
A549 NSCLC = system: A549 NSCLC
RPMI-8226 leukemia = system: RPMI-8226 leukemia
OVCAR-8 ovarian = system: OVCAR-8 ovarian
HS 578T breast = system: HS 578T breast
COLO 205 colon = system: COLO 205 colon
BT-549 breast = system: BT-549 breast
MOLT-4 leukemia = system: MOLT-4 leukemia
SF-295 CNS = system: SF-295 CNS
OVCAR-4 ovarian = system: OVCAR-4 ovarian
SW-620 colon = system: SW-620 colon
HL-60(TB) leukemia = system: HL-60(TB) leukemia
PC-3 prostate = system: PC-3 prostate
DMS 273 small cell lung = system: DMS 273 small cell lung
SN12K1 renal = system: SN12K1 renal

CCN(CC)c1ccc(/C=C2/C[N+](C)(C)C/C(=C/c3ccc(N(CC)CC)cc3)C2=O)cc1
TGI (RXF 393 renal): 10.3 µM
TGI (SR leukemia): 3.52 µM
TGI (OVCAR-3 ovarian): 7.31 µM
TGI (NCI-H460 lung): 15 µM
TGI (IGROV1 ovarian): 6.57 µM
TGI (NCI-H226 lung): 17.2 µM
TGI (SF-268 CNS): 11.2 µM
TGI (DMS 114 small cell lung): 3.38 µM
TGI (HCT-15 colon): > 100 µM
TGI (TK-10 renal): 61.8 µM
TGI (LXFL 529 NSCLC): 2.81 µM
TGI (UACC-257 melanoma): 6 µM
TGI (OVCAR-5 ovarian): 50.4 µM
TGI (SK-OV-3 ovarian): > 78.5 µM
TGI (UO-31 renal): > 100 µM
TGI (NCI-H522 lung): 7.74 µM
TGI (SNB-78 CNS): 9.62 µM
TGI (XF 498 CNS): 6.59 µM
TGI (MDA-MB-435): 3.69 µM
TGI (M19-MEL melanoma): 2.84 µM
TGI (DLD-1 colon): > 100 µM
TGI (HOP-92 NSCLC): 4.8 µM
TGI (KM20L2 colon): 12.9 µM
TGI (T-47D breast): 11.3 µM
TGI (SNB-75 CNS): 8.88 µM
TGI (SN12C renal): 16.4 µM
TGI (786-0 renal): 13.6 µM
TGI (KM12 colon): 2.91 µM
TGI (MDA-N): 3.56 µM
TGI (HCT-116 colon): 7.77 µM
TGI (DU-145 prostate): > 50.6 µM
TGI (LOX IMVI melanoma): 6.16 µM
TGI (MCF7 breast): 6.04 µM
TGI (EKVX NSCLC): 75.7 µM
TGI (U251 CNS): 9.24 µM
TGI (MALME-3M melanoma): 4.38 µM
TGI (HOP-62 NSCLC): 40.7 µM
TGI (SK-MEL-5 melanoma): 3.62 µM
TGI (CCRF-CEM leukemia): 3.42 µM
TGI (SK-MEL-28 melanoma): 4.09 µM
TGI (SK-MEL-2 melanoma): 3.92 µM
TGI (NCI-H23 lung): 10.3 µM
TGI (HT29 colon): 5.2 µM
TGI (SNB-19 CNS): 19.4 µM
TGI (RXF-631 renal): > 100 µM
TGI (ACHN renal): > 100 µM
TGI (A498 renal): > 42.2 µM
TGI (MDA-MB-231 breast): 5.87 µM
TGI (M14 melanoma): 7.07 µM
TGI (K-562 leukemia): 7.91 µM
TGI (CAKI-1 renal): > 100 µM
TGI (NCI/ADR-RES ovarian): > 100 µM
TGI (HCC-2998 colon): 6.25 µM
TGI (UACC-62 melanoma): 4.84 µM
TGI (HOP-18 NSCLC): 25 µM
TGI (SF-539 CNS): 6.19 µM
TGI (A549 NSCLC): > 100 µM
TGI (RPMI-8226 leukemia): 1.24 µM
TGI (OVCAR-8 ovarian): 14.7 µM
TGI (HS 578T breast): 11.2 µM
TGI (COLO 205 colon): 2.69 µM
TGI (BT-549 breast): 3.43 µM
TGI (MOLT-4 leukemia): 4.83 µM
TGI (SF-295 CNS): > 90.6 µM
TGI (OVCAR-4 ovarian): 13.8 µM
TGI (SW-620 colon): 13.5 µM
TGI (HL-60(TB) leukemia): 2.16 µM
TGI (PC-3 prostate): 35.7 µM

C/C=C/C1=C(Cl)C(=O)[C@@H](Cl)[C@@]1(O)C(=O)OC
TGI (RXF 393 renal): 4.76 µM
TGI (SR leukemia): 21.7 µM
TGI (OVCAR-3 ovarian): 6.94 µM
TGI (NCI-H460 lung): 15.2 µM
TGI (IGROV1 ovarian): 14.1 µM
TGI (NCI-H226 lung): 15.7 µM
TGI (SF-268 CNS): 24.2 µM
TGI (DMS 114 small cell lung): > 34.4 µM
TGI (HCT-15 colon): 4.43 µM
TGI (TK-10 renal): 9.14 µM
TGI (LXFL 529 NSCLC): 7.41 µM
TGI (UACC-257 melanoma): 3.5 µM
TGI (OVCAR-5 ovarian): 24.5 µM
TGI (SK-OV-3 ovarian): 30.6 µM
TGI (UO-31 renal): 10.2 µM
TGI (NCI-H522 lung): 2.52 µM
TGI (SNB-78 CNS): 39.4 µM
TGI (XF 498 CNS): 13.3 µM
TGI (M19-MEL melanoma): 10.1 µM
TGI (DLD-1 colon): 9.35 µM
TGI (HOP-92 NSCLC): 6.22 µM
TGI (KM20L2 colon): 15.9 µM
TGI (SNB-75 CNS): 32.8 µM
TGI (SN12C renal): 7.15 µM
TGI (786-0 renal): 18 µM
TGI (KM12 colon): 22.2 µM
TGI (HCT-116 colon): 11.7 µM
TGI (LOX IMVI melanoma): 6.37 µM
TGI (MCF7 breast): 3.89 µM
TGI (EKVX NSCLC): 9.27 µM
TGI (U251 CNS): 18.8 µM
TGI (DMS 273 small cell lung): 9.61 µM
TGI (MALME-3M melanoma): 6.21 µM
TGI (HOP-62 NSCLC): 2.42 µM
TGI (SK-MEL-5 melanoma): 16.5 µM
TGI (CCRF-CEM leukemia): > 24 µM
TGI (SK-MEL-28 melanoma): 14.2 µM
TGI (SK-MEL-2 melanoma): 7.56 µM
TGI (NCI-H23 lung): 10.1 µM
TGI (HT29 colon): 15.4 µM
TGI (SNB-19 CNS): 19.9 µM
TGI (RXF-631 renal): 43.9 µM
TGI (ACHN renal): 6.59 µM
TGI (A498 renal): 14.3 µM
TGI (M14 melanoma): 11.9 µM
TGI (K-562 leukemia): 14.4 µM
TGI (CAKI-1 renal): 8.4 µM
TGI (NCI/ADR-RES ovarian): 6.23 µM
TGI (HCC-2998 colon): 8.84 µM
TGI (SN12K1 renal): 4.48 µM
TGI (UACC-62 melanoma): 4.18 µM
TGI (HOP-18 NSCLC): 11 µM
TGI (SF-539 CNS): 5.45 µM
TGI (A549 NSCLC): 24.3 µM
TGI (RPMI-8226 leukemia): 29 µM
TGI (OVCAR-8 ovarian): 6.45 µM
TGI (COLO 205 colon): 3.22 µM
TGI (MOLT-4 leukemia): 12.9 µM
TGI (SF-295 CNS): 27.9 µM
TGI (OVCAR-4 ovarian): 5.59 µM
TGI (SW-620 colon): 3.1 µM
TGI (HL-60(TB) leukemia): 4.28 µM

Reference: PubChem BioAssay (NCI)
